# PMC10290124 (Nature Communications, 2023)
# Columns and labels:
# RhoA = target: T1, RhoA (Homo sapiens, UniProt P61586); experiment: cryo-EM structure of the hTRPV4-RhoA complex (ARD-RhoA local refinement, […] Å); assay type: binding
# T1 construct: endogenous RhoA from HEK 293S cells, co-purified with hTRPV4; with TRPV4
# human TRPV4 (hTRPV4) [1] = target: T2, human TRPV4 (hTRPV4) (Homo sapiens, UniProt Q9HBA0); experiment: cryo-EM structure ([…] Å, open state); EC50 from Fura-2 calcium imaging in HEK […] cells; assay type: cell-based; design: with RhoA
# human TRPV4 (hTRPV4) [2] = target: T2, human TRPV4 (hTRPV4)
# T2 sequence (Q9HBA0 whole entry): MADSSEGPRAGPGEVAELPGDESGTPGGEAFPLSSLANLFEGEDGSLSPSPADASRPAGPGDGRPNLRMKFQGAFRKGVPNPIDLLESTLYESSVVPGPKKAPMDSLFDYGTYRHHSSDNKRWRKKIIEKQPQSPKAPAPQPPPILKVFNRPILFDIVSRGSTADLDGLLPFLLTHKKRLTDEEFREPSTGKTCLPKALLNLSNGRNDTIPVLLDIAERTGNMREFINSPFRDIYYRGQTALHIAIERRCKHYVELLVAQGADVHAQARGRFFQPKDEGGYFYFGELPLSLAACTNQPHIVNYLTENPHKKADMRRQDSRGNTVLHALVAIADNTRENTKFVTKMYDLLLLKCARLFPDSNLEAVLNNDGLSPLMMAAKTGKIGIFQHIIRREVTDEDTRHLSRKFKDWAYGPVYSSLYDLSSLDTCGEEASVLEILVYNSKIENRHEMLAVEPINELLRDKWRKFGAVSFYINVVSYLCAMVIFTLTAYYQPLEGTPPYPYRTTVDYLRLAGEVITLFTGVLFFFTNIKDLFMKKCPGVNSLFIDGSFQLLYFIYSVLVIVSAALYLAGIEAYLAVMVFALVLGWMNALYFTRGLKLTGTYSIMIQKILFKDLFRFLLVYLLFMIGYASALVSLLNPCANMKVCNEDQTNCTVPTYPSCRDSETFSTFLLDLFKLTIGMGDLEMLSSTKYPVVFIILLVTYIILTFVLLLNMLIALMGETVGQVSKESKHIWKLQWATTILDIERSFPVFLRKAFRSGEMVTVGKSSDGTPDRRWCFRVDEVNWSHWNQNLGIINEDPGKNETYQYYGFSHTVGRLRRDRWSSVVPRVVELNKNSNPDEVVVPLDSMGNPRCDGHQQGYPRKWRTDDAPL
# T2 sequence (P61586 1-190 partner): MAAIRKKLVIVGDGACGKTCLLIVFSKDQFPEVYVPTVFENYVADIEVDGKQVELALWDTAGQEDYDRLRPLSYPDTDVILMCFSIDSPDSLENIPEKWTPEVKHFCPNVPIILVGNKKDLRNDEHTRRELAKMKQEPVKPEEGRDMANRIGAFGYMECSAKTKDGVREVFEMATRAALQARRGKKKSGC
# T1 sequence (P61586 1-190): as the sequence (P61586 1-190 partner) above
# T1 sequence (Q9HBA0 whole entry partner): as the sequence (Q9HBA0 whole entry) above
compound,measurement,setting,value
"Nc1nc2c(ncn2[C@@H]2O[C@H](CO[P@](=O)(O)OP(=O)(O)O)[C@@H](O)[C@H]2O)c(=O)[nH]1 [GDP, guanosine diphosphate]","cryo-EM structure of the hTRPV4-RhoA complex (ARD-RhoA local refinement, 3.49 Å)",RhoA,unambiguously identify the endogenous molecule of guanosine diphosphate (GDP) bound in the RhoA ligand-binding pocket
"CCCCCCCCCC(=O)O[C@@H]1[C@@H](C)[C@@]2(O)[C@@H](C=C(CO)C[C@@]3(O)C(=O)C(C)=C[C@@H]23)[C@@H]2C(C)(C)[C@]12OC(=O)CCCCCCCCC [4α-PDD, 4α-phorbol 12,13-didecanoate]",EC50,human TRPV4 (hTRPV4) [1],450 ± 39 nM
Cc1c(C(=O)Nc2cccc(C(F)(F)F)c2)cc(-c2ccccc2)n1CCCN1CCOCC1 [HC-067047],IC50,human TRPV4 (hTRPV4) [2],25 ± 6.2 nM
